Data reported in patent publication US12678384B2, “Sanitizing compositions containing ionic liquid” (CAGE BIO INC., priority 2020, dated 2026).
Read-outs that look alike come from different tables or passages of the source.

Legend:
[1] = test system: E. coli; experiment: In vivo study of residual antimicrobial efficacy on finger taps (Example 7); settings: finger taps inoculated with E. coli 30 min (controls) or 30 min, 1 hr, 2 hrs (test article) post application
Procedure: • 1) Wash hands with nonmedicated soap to remove surface dirt and oil, dried, and finally decontaminate with 70% isopropyl alcohol. Allow to air dry. • 2) Apply test article (Sanitizer A containing 5% CAGE) and controls (70% Alcohol and DI Water or 0.9% Sterile Saline Solution) on each finger tap to cover it completely. Let it dry. • 3) Inoculate the finger taps #1-3 with 10 μL of high-concentrated suspension of E. coli at 30 min of post-application. • 4) Wait for 60 sec (contact time) • 5) Tap the finger on the TSA agar plate and transfer plates #1-3 into the incubator set at 37° C. • 6) Apply 10 μL of inoculum on Finger #4 at 1 hr. of post application. • 7) Wait for 60 sec and tap the finger on the TSA agar plate. Transfer plate into the incubator set at 37° C. • 8) Apply 10 μL of inoculum on Finger #5 at 2 hrs of post application. • 9) Wait for 60 sec and tap the finger on the TSA agar plate. Transfer plate into the incubator set at 37° C. • 10) Observe bacterial growth after 24 hrs in incubator.

[2] = in vivo
Procedure: Distilled water was used as a negative control. The patches were removed by the subjects after 24 h and a new one was applied by the site staff at the same exact site at the next visit. The subjects reported to the site for a total of 9 visits, 3 each week. During each visit the application area was observed by the study investigator and a new patch was applied.
This cosmetic study was approved by an IRB and conducted by AMA Laboratories Inc. in New York. […] The application area was occluded with hypoallergenic tape. The subjects were required to keep the tape for 24 h. At each visit, the application site was evaluated for skin irritation on a 5-point scale (0-4). […] The subjects were then evaluated for any skin reactions after 24 and 48 h.

[3] = test system: human Coronavirus strain 229E (hCoV229E) (ATCC #VR-740); settings: for TCID10 (log10): 5% w/w in purified water, virus control 6.50; for CPE (cytopathic/cytotoxic effect), four replicate wells: 5% w/w

## CCO [70% Ethanol, Ethanol]
[1]
  microbial growth after 24 hrs at 37° C.: Microbial growth was observed

## choline geranate [CG-101]
[2]
  other adverse events reported in the study: no other adverse events
  sensitization response: did not create any sensitization response
  subjects showing any skin reactions in the first 3 visits (7-days): None
  subjects that did not display any irritation throughout the entire 21-day study: 43 subjects
  subjects that experienced some skin irritation: 8 subjects
[3]; 5 minutes exposure
  TCID10 (log10): ≤2.50 log10
[3]; 10 minutes exposure
  TCID10 (log10): ≤2.50 log10
[3]; 5 minutes exposure, dilution (−Log10) −3
  CPE (cytopathic/cytotoxic effect), four replicate wells: 0000
[3]; 5 minutes exposure, dilution (−Log10) −4
  CPE (cytopathic/cytotoxic effect), four replicate wells: 0000
[3]; 5 minutes exposure, dilution (−Log10) −5
  CPE (cytopathic/cytotoxic effect), four replicate wells: 0000
[3]; 5 minutes exposure, dilution (−Log10) −6
  CPE (cytopathic/cytotoxic effect), four replicate wells: 0000
[3]; 5 minutes exposure, dilution (−Log10) −7
  CPE (cytopathic/cytotoxic effect), four replicate wells: 0000
[3]; 10 minutes exposure, dilution (−Log10) −3
  CPE (cytopathic/cytotoxic effect), four replicate wells: 0000
[3]; 10 minutes exposure, dilution (−Log10) −4
  CPE (cytopathic/cytotoxic effect), four replicate wells: 0000
[3]; 10 minutes exposure, dilution (−Log10) −5
  CPE (cytopathic/cytotoxic effect), four replicate wells: 0000
[3]; 10 minutes exposure, dilution (−Log10) −6
  CPE (cytopathic/cytotoxic effect), four replicate wells: 0000
[3]; 10 minutes exposure, dilution (−Log10) −7
  CPE (cytopathic/cytotoxic effect), four replicate wells: 0000
